Assay [1] relates to acetic acid-induced pain model. As to the kind of experiment: acetic acid-induced pain model (writhing syndrome test). Type of assay: in vivo, ICR mice. The conditions noted are these: for pain inhibition effect: FIG. 3, compounds isolated from ZPE6A or ZPE6C fraction; for Pain inhibition percentage (%)(50 mg/kg, po): active ingredients. The procedure:
The acetic acid-induced writhing syndrome test is an animal model for determining analgesic effects. It is mainly used to test the effect of analgesics on the peripheral nervous system. The experimental animals used herein were 5-week-old ICR mice purchased from Central Laboratory Animals (Seoul) and acclimated in a breeding room maintained at a humidity of 50% and a temperature of 24 to 26°C for one week. Feed and water were supplied for free intake. […] The test substance was orally administered 60 minutes before the induction of pain to determine the degree of analgesic effect.
(In general: An intraperitoneal irritant provokes the stretching counted in writhing tests.)

Assay [2] relates to pain response induced by formalin. Kind of assay: formalin test. The class given is in vivo, rats. The note with it: 100 mg/kg. The procedure: The formalin test is primarily used to measure the analgesic effects of drugs in chronic pain models, in which the pain stimulus and response are not temporary but persistent. The pain response induced by formalin includes phase 1 and phase 2, and these two phases can be distinguished pharmacologically. The test substance and acetaminophen or aspirin, as a positive control group, were orally administered 60 minutes before the induction of pain, 10% formalin was injected subcutaneously into the hind legs of rats, and the number of actions in response to pain was measured every 3 minutes. The action in response to pain was measured separately in phase 1 (0-12 minutes) and phase 2 (24-39 minutes).

The subject of the next assay is mast cell RBL-2H3. Kind of assay: inhibition of mast cell degranulation (β-hexosaminidase secretion). Type of assay: cell-based. The conditions noted are these: for inhibition at 25 µg/mL / inhibition at 100 µg/mL: Rattus norvegicus. The procedure:
Inhibition of inflammation-promoting cytokines has been reported to inhibit autoimmune diseases such as atopy. Thus, in the present embodiment, the mast cell RBL-2H3 was treated with the Zanthoxylum piperitum leaf extract or active compounds (quercitrin, afzelin) to evaluate the secretion inhibition ability of β-hexosaminidase. That is, the effect of inhibiting mast cell degranulation by the Zanthoxylum piperitum leaf extract or the active compound (quercitrin, afzelin) was found.

Assay [3] deals with collagen-induced arthritis animal model. Kind of assay: collagen-induced arthritis animal model (clinical score, micro-CT). On the set-up: scale not given here. Type of assay: in vivo, DBA/1J mice. The procedure: As one of the methods for evaluating the therapeutic effect of rheumatoid arthritis, the antirheumatic efficacy of each test substance was measured in a collagen-induced arthritis animal model. The experimental animals herein used were 5-week-old DBA/1J mice purchased from Central Laboratory Animals (Seoul) and acclimated in a breeding room maintained at a humidity of 50% and a temperature of 24 to 26°C for one week. Feed and water were supplied for free intake. In order to induce arthritis, type 2 collagen and CFA (complete Freund's adjuvant) were mixed to obtain an emulsion. 200 µL of the emulsion was injected subcutaneously […] into the lower part of the tail 2 to 3 cm away from the torso of DBA/1J mice, and the same amount of the emulsion was secondarily injected in […] into the lower part of the tail in the same manner as in the primary injection 21 days after exposure to a primary antigen. A positive control group was orally administered with dexamethasone at a dose of 1 mg/kg from the 22nd day after primary antigen exposure, the group administered with the Zanthoxylum piperitum leaf extract was orally treated at 100 mg/kg for 3 weeks, rheumatoid arthritis lesions were visually observed and graded, and the arthritis alleviation efficacy was measured as a clinical score.

[4] abbreviates: RBL-2H3, read-out: degranulation inhibitory activity compared to the ketotifen drug.
[5] abbreviates: individual animals No. 1-7, extract 100 mg/kg oral 3 weeks, dexamethasone 1 mg/kg oral, listed as Positive control group.

Values joined by “and” are separate entries in the source; they are usually repeats but may differ in a detail not shown here. Equal values may be shown once. Read-outs that look alike come from different tables or passages of the source.

In the case of `O=C(O)c1ccccc1C(=O)O` [1,2-benzenedicarboxylic acid], the pain inhibition effect result in assay [1] is listed as “excellent pain inhibition effects”.

For `CC(C)(C)c1ccc(O)c(C(C)(C)C)c1` [2,4-di-tert-butylphenol], the pain inhibition effect entry in assay [1] is on record as “excellent pain inhibition effects”.

With `CC(=O)c1ccc(O)cc1` [4'-hydroxyacetophenone], in assay [1], the pain inhibition effect result is “excellent pain inhibition effects”.

As to `CC(=O)Nc1ccc(O)cc1` [Acetaminophen], the “Inhibition (%) Phase 1” value in assay [2] (phase 1 (0-12 minutes)) turned out to be 35.2%. Further, the “Inhibition (%) Phase 2” value in assay [2] (phase 2 (24-39 minutes)) turned out to be 41.7%.

For the molecule `C[C@@H]1O[C@@H](Oc2c(-c3ccc(O)cc3)oc3cc(O)cc(O)c3c2=O)[C@H](O)[C@H](O)[C@H]1O` [Afzelin, camphorol-3-O-alpha-L-rhamnoside], the “Pain inhibition percentage (%)(50 mg/kg, po)” value in assay [1] is given as 93.6%. The inhibition at 25 µg/mL in the assay with mast cell RBL-2H3 (RBL-2H3, treatment dose of 25 µg/mL, read-out: degranulation inhibitory activity compared to the ketotifen drug) is about 195%. The inhibition at 100 µg/mL with mast cell RBL-2H3 (RBL-2H3, treatment dose of 100 µg/mL, read-out: degranulation inhibitory activity compared to the ketotifen drug) was about 93%. Further, the “Effect of inhibiting degranulation (% inhibition)” value (“Effect … (% inhibition)” for short) is recorded as 25.1 ± 1.68 % inhibition with mast cell RBL-2H3 (treatment amount 12.5 µg/mL), 39.4 ± 1.06 % inhibition with mast cell RBL-2H3 (treatment amount 25 µg/mL), 41.3 ± 1.67 % inhibition in the assay on mast cell RBL-2H3 (treatment amount 50 µg/mL) and 40.9 ± 0.98 % inhibition in the assay with mast cell RBL-2H3 (treatment amount 100 µg/mL).

For the molecule `CN1CCC(=C2c3ccccc3CC(=O)c3sccc32)CC1` [Ketotifen], the “Effect … (% inhibition)” value in the assay with mast cell RBL-2H3 (treatment amount 12.5 µg/mL) is on record as 13.8 ± 0.88 % inhibition; in the assay on mast cell RBL-2H3 (treatment amount 25 µg/mL), 20.2 ± 0.84 % inhibition; with mast cell RBL-2H3 (treatment amount 50 µg/mL), 32.8 ± 1.04 % inhibition; in the assay on mast cell RBL-2H3 (treatment amount 100 µg/mL) it was 43.9 ± 1.45 % inhibition.

Regarding `C[C@@H]1O[C@@H](Oc2c(-c3ccc(O)c(O)c3)oc3cc(O)cc(O)c3c2=O)[C@H](O)[C@H](O)[C@H]1O` [Quercitrin, quercetin-3-O-alpha-L-rhamnoside], in assay [1], the “Pain inhibition percentage (%)(50 mg/kg, po)” value turned out to be 69.2%. Further, the inhibition at 25 µg/mL with mast cell RBL-2H3 (setting [4]) is about 70%. In addition, the inhibition at 100 µg/mL in the assay with mast cell RBL-2H3 (setting [4]) is about 50%. Further, the “Effect … (% inhibition)” value in the assay on mast cell RBL-2H3 (treatment amount 12.5 µg/mL) was determined as 6.3 ± 0.13 % inhibition; in the assay with mast cell RBL-2H3 (treatment amount 25 µg/mL) it was 14.3 ± 0.11 % inhibition; in the assay on mast cell RBL-2H3 (treatment amount 50 µg/mL), 19.8 ± 0.28 % inhibition; in the assay with mast cell RBL-2H3 (treatment amount 100 µg/mL) it was 22.2 ± 0.32 % inhibition.

Turning to `C[C@@H]1C[C@H]2[C@@H]3CCC4=CC(=O)C=C[C@]4(C)[C@@]3(F)[C@@H](O)C[C@]2(C)[C@@]1(O)C(=O)CO` [dexamethasone], the average score in assay [3] (group mean of total clinical score, control group 11.8) stood at 6.3. The “visual clinical score Right back leg” value in assay [3] (individual animals No. 1-7, extract 100 mg/kg oral 3 weeks, dexamethasone 1 mg/kg oral) worked out at 1. Also, in assay [3] (setting [5]), the “visual clinical score Left back leg” value was 1 (5×) and 2 (2×); the “visual clinical score Left front leg” value was 3 (2×) and 2 (3×) and 1 (2×); the “visual clinical score Right front leg” value is 3 (2×) and 2 (3×) and 1 (2×); the “visual clinical score Total” value is 8 and 7 (2×) and 6 (2×) and 5 (2×).

These data come from patent EP3698805A1, “FRACTION OFZANTHOXYLUM PIPERITUM” (Mecox Curemed Co., Ltd., priority 2017, dated 2019).
